Like-named read-outs stand apart in the source and are kept apart here.
Assays:
D2 receptors = molecular target: T1, D2 receptors (Rattus norvegicus, UniProt P61169); assay: Displacement of 3H-spiroperidol binding to D2 receptors (striate tissue of rat brain)
T1 construct: Striate tissue of rat brain was prepared; from tissue; host or cells: rat brain striatum, crude membrane homogenate
Description: Studies on binding to D2 receptors.
These were carried out as described by Leysen et al (1978), with certain modifications. Striate tissue of rat brain was prepared, with homogenization in 20 volumes of Tris-HCl buffer in ice (50 mM, pH=7.7, 4° C.), The homogenate was centrifuged (40,000 g, 10 min) and the pellet was suspended in 10 volumes of cold buffer and recentrifuged. The final pellet was suspended in 10 volumes of 50 mM Tris-HCl buffer, with 120 mM of NaCl and 5 mM of […] (pH=7.7). The displacement studies were carried out with 25 μl of ^3 H-spiroperidol (0.2 nM, NEN), 25 μl of cold displacer and 200 μl of tissue. The incubation (37° C., 15 min) was terminated by rapid filtering through Whatman GF/C filters.

α1-adrenergic receptors = assay: Displacement of 3H-prazosin binding to α1-adrenergic receptors (rat brain cortex); conditions: read-out: Displacement (Ki, nM) of the binding of 3H-prazosin to α1-adrenergic receptors, 3H-prazosin 0.5 nM, 37° C., 15 min, pH 7.7
Description: Binding to at adrenergen receptors
These were carried out as described by Morrow et al . […] Rat brain cortical tissue was obtained, with homogenization in 20 volumes of Tris-HCl buffer in ice (50 mM, pH=7.7, 4° C.). The homogenate was centrifuged (25,000 rpm/12 min at 4° C.) and the pellet was rehomogenized, being finally resuspended in 50 mM Tris-HCl buffer, pH=7.7 (dilution 1:200). […] The incubation (37° C., 15 min) was terminated by rapid filtering through Whatman GF/C filters, followed by washing twice with […] of Tris-HCl buffer, 50 mM.

5HT2 receptors = molecular target: T2, 5HT2 receptors (Rattus norvegicus, UniProt P14842); assay: Displacement of 3H-ketanserine binding to 5HT2 receptors (front cortex of rat brain); conditions: 3H-ketanserine 0.5 nM, 37° C., 15 min
T2 construct: Front cortex of rat brain was prepared; from tissue; host or cells: rat brain frontal cortex, crude membrane homogenate
Description: These were carried out as described by Leysen et al (1978), with certain modifications. […] The incubation (37° C., 15 min) was terminated by rapid filtering through Whatman GF/C filters.

T1 sequence (P61169 whole entry): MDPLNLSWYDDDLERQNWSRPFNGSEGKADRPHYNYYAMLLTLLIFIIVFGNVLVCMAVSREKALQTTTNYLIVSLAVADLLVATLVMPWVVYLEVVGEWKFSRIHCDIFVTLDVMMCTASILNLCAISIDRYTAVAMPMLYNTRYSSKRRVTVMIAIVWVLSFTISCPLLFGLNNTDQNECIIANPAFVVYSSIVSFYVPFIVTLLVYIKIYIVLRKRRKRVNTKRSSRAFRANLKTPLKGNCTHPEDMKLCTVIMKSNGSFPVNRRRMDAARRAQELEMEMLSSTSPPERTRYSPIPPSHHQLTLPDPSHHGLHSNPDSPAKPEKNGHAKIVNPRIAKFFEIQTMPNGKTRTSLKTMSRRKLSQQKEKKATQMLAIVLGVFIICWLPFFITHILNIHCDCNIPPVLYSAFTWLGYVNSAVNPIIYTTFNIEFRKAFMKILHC
T2 sequence (P14842 whole entry): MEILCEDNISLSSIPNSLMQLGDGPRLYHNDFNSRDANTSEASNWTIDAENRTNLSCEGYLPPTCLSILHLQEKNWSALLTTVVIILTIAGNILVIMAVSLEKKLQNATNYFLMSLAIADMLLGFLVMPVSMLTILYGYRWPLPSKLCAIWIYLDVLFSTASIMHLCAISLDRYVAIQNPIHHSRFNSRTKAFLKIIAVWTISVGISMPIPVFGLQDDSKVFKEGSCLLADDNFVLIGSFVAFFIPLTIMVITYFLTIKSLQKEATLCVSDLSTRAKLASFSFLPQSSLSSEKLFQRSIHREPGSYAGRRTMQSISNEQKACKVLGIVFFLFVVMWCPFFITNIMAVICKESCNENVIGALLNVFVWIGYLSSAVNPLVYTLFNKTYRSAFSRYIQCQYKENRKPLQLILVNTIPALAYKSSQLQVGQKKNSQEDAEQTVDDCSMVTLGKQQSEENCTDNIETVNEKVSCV

| Ki (D2 receptors; striate rat tissue, 3H-spiroperidol 0.2 nM, 37° C., 15 min, pH 7.7) | SMILES | Ki (D2 receptors) | Ki (α1-adrenergic receptors) | Ki (5HT2 receptors) |
| --- | --- | --- | --- | --- |
| – | Cc1nc2n(c(=O)c1CCN1CC=C(c3noc4cc(F)ccc34)CC1)CCCC2 [Compound I, 3-{2-[4-(6-fluoro-benzo[d]isoxazol-3-yl)-3,6-dihydro-2H-pyridin-1-yl]-ethyl}-2-methyl-6,7,8,9-tetrahydropyrido[1,2-a]-pyrimidin-4-one] | 0.022 µM | 14.6 nM | 0.0017 µM |
| 0.0477 µM | Cc1nc2sccn2c(=O)c1CCN1CCC(=C(c2ccc(F)cc2)c2ccc(F)cc2)CC1 [Ritanserine, reference compound] | – | 29.6 nM | – |

Reference: US5658916A, “Drug active on the central nervous system, a process for the preparation thereof and pharmaceutical compositions containing it” (Vita-Invest, S.A., priority 1994, dated 1997)
